In ChEMBL document CHEMBL5260810, “Inhibition of bromodomain-containing protein 9 for the prevention of epigenetically-defined drug resistance” (Bioorg Med Chem Lett, 2017):

What was measured:
[1] = target: T1, Ephrin type-A receptor 1 (Homo sapiens) (UniProt P21709); test: Inhibition of EphA1 (unknown origin) at 1 uM relative to control
T1 sequence (whole entry): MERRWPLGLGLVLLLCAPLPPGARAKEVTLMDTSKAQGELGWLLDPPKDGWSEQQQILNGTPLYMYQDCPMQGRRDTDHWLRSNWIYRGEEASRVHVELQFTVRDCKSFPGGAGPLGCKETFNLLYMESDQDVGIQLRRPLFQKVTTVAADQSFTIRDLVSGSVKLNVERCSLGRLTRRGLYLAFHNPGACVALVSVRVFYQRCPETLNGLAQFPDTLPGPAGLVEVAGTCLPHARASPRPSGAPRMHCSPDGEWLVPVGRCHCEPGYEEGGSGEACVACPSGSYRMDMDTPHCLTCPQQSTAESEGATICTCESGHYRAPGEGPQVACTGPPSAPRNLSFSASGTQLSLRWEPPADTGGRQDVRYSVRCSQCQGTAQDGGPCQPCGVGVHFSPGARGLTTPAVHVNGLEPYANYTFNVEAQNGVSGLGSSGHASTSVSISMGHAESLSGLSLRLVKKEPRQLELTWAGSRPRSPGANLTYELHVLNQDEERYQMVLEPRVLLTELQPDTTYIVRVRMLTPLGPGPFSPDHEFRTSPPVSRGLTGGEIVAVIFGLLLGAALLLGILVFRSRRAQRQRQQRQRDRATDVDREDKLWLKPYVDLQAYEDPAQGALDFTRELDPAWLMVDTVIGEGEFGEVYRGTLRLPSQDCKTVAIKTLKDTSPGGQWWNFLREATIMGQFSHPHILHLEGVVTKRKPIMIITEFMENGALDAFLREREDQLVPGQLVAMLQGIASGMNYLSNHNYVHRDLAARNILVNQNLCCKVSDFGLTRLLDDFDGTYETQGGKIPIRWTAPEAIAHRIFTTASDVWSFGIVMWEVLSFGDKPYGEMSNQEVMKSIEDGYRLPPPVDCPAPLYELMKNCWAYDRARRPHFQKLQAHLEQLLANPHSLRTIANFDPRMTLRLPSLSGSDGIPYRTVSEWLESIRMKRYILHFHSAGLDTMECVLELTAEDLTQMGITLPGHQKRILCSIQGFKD

[2] = tested on: MX1; test: Cytotoxicity against human MX1 cells measured after 8 days; type: functional, cell-based; conditions: MX1, 192 h
[3] = tested on: HEY; test: Cytotoxicity against human HEY cells measured after 8 days; type: functional, cell-based; conditions: 192 h
[4] = target: Histone acetyltransferase KAT2A (Homo sapiens, UniProt Q92830); test: Binding affinity to human partial length GCN5L2 (E726 to K837 residues) expressed in bacterial expression system by BROMOscan assay
[5] = target: T2, Bromodomain-containing protein 7 (Homo sapiens, UniProt Q9NPI1); test: Binding affinity to human partial length BRD7 (L125 to R254 residues) expressed in mammalian expression system by BROMOscan assay
T2 sequence (Q9NPI1 whole entry): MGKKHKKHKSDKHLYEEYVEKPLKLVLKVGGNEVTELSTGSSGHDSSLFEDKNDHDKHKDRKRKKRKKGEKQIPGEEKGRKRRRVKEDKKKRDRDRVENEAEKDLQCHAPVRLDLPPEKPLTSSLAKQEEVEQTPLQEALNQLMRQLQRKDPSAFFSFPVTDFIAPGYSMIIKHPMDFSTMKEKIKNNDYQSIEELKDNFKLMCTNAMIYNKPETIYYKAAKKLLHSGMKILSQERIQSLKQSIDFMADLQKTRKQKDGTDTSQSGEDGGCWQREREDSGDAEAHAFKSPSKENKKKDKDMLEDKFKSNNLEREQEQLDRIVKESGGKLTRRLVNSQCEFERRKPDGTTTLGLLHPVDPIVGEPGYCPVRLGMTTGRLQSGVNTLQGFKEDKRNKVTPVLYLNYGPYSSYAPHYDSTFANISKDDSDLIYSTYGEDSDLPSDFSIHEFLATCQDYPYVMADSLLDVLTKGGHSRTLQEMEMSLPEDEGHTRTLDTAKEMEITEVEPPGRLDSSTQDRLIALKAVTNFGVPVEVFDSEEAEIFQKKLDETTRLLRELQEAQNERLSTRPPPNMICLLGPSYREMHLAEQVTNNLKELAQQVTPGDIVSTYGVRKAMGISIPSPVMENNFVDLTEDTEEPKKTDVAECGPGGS

[6] = target: Mu-type opioid receptor (Homo sapiens) (UniProt P35372); test: Displacement of [3H]DAMGO from human recombinant mu receptor at 10 uM after 120 mins by scintillation counting analysis relative to control
[7] = Cytotoxicity against human OV7 cells measured after 8 days; type: functional, cell-based; conditions: OV7, 192 h
[8] = target: Chromatin remodeling regulator CECR2 (Homo sapiens, UniProt Q9BXF3); test: Displacement of biotinylated small-molecule ligand from recombinant His-tagged CECR2 (unknown origin) measured after 10 mins by TR-FRET assay
[9] = tested on: NCI-H460; test: Cytotoxicity against human NCI-H460 cells measured after 8 days; type: functional, cell-based; conditions: NCI-H460, 192 h
[10] = Cytotoxicity against human COLO 206F cells measured after 8 days; type: functional, cell-based; conditions: 192 h
[11] = tested on: CAL-51; test: Cytotoxicity against human CAL-51 cells measured after 8 days; type: functional, cell-based; conditions: CAL-51, 192 h
[12] = tested on: ChaGo-K-1; test: Cytotoxicity against human ChaGo-K-1 cells measured after 8 days; type: functional, cell-based; conditions: ChaGo-K-1, 192 h
[13] = tested on: U-698-M; test: Cytotoxicity against human U-698-M cells measured after 8 days; type: functional, cell-based; conditions: 192 h
[14] = tested on: HCC1419; test: Cytotoxicity against human HCC1419 cells measured after 8 days; type: functional, cell-based; conditions: HCC1419, 192 h
[15] = target: Serine/threonine-protein kinase 24 (Homo sapiens) (UniProt Q9Y6E0); test: Inhibition of MST3 (unknown origin) at 1 uM relative to control
[16] = Cytotoxicity against human OCUM-1 cells measured after 8 days; type: functional, cell-based; conditions: OCUM1, 192 h
[17] = tested on: IGR-37 cell line; test: Cytotoxicity against human IGR-37 cell line measured after 8 days; type: functional, cell-based; conditions: IGR-37, 192 h
[18] = target: Histamine H2 receptor (Homo sapiens) (UniProt P25021); test: Displacement of [125I]APT from human recombinant histamine H2 receptor at 10 uM after 120 mins by scintillation counting analysis relative to control
[19] = target: Bromodomain-containing protein 4 (Homo sapiens, UniProt O60885); test: Binding affinity to BRD4 bromodomain 1/2 long isoform (unknown origin) by BROMOscan assay

Sequence of Histone acetyltransferase KAT2A (Q92830 whole entry, the tested form may be a part): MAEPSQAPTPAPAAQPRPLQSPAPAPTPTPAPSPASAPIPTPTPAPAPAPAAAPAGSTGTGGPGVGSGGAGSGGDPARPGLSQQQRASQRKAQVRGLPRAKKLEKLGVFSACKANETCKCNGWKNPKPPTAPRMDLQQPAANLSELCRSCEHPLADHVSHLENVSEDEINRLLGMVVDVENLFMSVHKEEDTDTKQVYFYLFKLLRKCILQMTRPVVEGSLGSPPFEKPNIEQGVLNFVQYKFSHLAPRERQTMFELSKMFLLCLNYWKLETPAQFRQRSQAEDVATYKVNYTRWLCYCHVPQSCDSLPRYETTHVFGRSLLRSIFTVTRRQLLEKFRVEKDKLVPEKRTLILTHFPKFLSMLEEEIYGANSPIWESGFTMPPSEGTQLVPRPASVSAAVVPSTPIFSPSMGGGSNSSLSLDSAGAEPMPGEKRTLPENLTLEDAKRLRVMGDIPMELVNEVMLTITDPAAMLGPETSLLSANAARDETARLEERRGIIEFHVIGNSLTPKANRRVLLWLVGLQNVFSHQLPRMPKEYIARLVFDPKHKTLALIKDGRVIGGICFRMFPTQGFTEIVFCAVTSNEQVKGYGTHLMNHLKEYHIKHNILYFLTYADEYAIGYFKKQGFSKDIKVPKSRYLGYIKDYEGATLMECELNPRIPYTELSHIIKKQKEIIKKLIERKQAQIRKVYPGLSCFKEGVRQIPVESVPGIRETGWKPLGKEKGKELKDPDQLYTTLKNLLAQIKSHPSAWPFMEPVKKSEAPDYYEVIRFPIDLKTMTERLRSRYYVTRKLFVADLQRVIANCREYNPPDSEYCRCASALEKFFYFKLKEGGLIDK
Sequence of Chromatin remodeling regulator CECR2 (Q9BXF3 whole entry): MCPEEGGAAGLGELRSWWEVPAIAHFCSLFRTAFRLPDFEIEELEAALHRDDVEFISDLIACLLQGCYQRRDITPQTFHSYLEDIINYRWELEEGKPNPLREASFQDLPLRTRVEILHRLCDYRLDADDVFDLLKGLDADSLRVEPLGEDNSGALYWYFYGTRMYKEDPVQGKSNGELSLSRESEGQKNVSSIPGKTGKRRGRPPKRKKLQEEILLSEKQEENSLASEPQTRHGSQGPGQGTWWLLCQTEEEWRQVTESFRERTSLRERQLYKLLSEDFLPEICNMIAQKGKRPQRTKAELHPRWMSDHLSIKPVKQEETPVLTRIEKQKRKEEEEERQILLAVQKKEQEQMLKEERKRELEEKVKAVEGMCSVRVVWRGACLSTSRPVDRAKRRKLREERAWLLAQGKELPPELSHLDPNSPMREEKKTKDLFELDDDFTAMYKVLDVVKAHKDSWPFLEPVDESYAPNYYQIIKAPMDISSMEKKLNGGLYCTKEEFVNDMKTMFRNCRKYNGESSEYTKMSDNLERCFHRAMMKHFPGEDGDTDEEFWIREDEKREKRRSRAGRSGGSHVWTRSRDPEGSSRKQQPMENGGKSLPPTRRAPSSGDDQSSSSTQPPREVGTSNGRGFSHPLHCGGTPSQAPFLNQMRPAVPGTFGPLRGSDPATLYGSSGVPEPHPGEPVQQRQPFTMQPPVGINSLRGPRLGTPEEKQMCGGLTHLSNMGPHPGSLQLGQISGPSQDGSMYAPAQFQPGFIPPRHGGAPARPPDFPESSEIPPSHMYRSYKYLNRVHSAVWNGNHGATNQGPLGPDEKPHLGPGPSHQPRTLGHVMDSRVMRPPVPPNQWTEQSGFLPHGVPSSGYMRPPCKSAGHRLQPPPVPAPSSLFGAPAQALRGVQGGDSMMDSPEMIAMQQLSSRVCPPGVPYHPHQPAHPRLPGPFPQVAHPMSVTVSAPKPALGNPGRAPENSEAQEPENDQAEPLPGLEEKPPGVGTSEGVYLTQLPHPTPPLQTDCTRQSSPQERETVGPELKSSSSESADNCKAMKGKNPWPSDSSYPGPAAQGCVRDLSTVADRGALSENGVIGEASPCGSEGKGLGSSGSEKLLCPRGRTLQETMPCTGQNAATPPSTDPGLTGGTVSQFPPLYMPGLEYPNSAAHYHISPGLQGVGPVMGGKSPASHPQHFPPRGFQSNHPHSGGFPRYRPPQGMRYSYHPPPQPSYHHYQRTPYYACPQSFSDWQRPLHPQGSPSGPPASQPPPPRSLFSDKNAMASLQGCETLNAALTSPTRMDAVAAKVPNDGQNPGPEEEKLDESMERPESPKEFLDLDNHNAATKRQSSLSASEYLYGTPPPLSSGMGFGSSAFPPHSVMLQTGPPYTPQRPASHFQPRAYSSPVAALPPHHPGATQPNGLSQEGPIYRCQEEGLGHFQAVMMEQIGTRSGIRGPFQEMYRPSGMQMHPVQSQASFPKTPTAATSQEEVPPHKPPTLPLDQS
Sequence of Histamine H2 receptor (Homo sapiens) (P25021 whole entry, canonical isoform): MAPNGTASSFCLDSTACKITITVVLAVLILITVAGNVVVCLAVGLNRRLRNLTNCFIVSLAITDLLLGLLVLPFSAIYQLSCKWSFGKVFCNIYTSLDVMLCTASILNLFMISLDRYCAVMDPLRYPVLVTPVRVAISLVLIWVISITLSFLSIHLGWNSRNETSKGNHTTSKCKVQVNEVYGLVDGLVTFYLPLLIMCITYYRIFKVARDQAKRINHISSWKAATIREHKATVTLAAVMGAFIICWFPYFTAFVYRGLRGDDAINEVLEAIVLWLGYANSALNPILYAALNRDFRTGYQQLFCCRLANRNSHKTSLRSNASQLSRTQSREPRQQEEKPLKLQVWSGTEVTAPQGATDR
Sequence of Mu-type opioid receptor (Homo sapiens) (P35372 whole entry): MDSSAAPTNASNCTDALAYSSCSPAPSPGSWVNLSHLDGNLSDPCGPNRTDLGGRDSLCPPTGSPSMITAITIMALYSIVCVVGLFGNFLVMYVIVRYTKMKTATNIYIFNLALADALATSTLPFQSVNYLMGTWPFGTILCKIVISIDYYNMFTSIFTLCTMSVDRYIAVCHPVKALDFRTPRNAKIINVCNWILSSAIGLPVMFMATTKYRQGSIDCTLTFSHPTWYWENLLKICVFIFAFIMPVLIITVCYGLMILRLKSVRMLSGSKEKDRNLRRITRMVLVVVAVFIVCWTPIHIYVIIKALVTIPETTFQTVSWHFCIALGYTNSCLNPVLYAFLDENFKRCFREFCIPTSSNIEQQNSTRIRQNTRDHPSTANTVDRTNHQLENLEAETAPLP
Sequence of Serine/threonine-protein kinase 24 (Homo sapiens) (Q9Y6E0 whole entry, looked up): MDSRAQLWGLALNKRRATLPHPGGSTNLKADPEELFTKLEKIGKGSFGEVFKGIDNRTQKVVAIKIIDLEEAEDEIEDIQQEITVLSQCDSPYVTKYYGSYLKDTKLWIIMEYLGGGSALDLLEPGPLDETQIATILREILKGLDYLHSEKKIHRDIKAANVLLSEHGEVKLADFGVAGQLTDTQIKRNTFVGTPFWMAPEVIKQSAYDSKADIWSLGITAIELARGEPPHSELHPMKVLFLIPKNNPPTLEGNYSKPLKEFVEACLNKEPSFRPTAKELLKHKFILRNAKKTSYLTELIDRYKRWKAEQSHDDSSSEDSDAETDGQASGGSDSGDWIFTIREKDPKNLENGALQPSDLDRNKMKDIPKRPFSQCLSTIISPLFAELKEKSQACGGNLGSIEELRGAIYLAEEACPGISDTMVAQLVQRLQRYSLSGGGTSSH

Compound | inhibition [1] [%] | IC50 [2] [µM] | IC50 [3] [µM] | Kd [4] [µM] | Kd [5] [µM] | Activity [6] [%] | IC50 [7] [µM] | IC50 [8] [µM] | IC50 [9] [µM] | IC50 [10] [µM] | IC50 [11] [µM] | IC50 [12] [µM] | IC50 [13] [µM] | IC50 [14] [µM] | inhibition [15] [%] | IC50 [16] [µM] | IC50 [17] [µM] | Activity [18] [%] | Kd [19] [µM]
C/C=C/Cn1cc(-c2ccc(C(C)(C)O)cc2OC)c2cc[nH]c2c1=O | 4 | 20 | 20 | 0.41 | 0.34 | 10 | 20 | > 20 | 20 | 20 | 20 | 20 | 20 | 20 | 6 | 20 | 20 | 1 | 1.7
C/C=C/Cn1cc(-c2ccc(C(=O)N3CCOCC3)cc2)c2cc[nH]c2c1=O | 0.8 | 20 | 20 | > 10 | 0.2 | 5 | 20 | 2.9 | 20 | 20 | 20 | 20 | 20 | 20 | -2.5 | 20 | 20 | 6 | 8.8
C/C=C/Cn1cc(-c2cc(OC)c(C(C)(C)O)cc2OC)c2cc(C)[nH]c2c1=O | – | – | – | 0.16 | 0.52 | – | – | 4.3 | – | – | – | – | – | – | – | – | – | – | > 10
C/C=C/Cn1cc(-c2cc(OC)c(C(=O)N3CCOCC3)cc2OC)c2cc(C)[nH]c2c1=O | 4 | 2 | 2 | > 10 | 0.11 | 9 | 2 | 2.4 | 2 | 2 | 2 | 2 | 2 | 2 | 7 | 2 | 2 | -5 | > 10
